Laboratory results published in US7041276B2, “Methods of screening agents for activity using teleosts” (priority 1998, dated 2006).
“Also recorded” adds a separate entry of the source.

Tests used:
[1] = tested on: mice and rats; conditions: TOXNET Web Search and other sources; cited from earlier work
[2] = tested on: zebrafish embryos; assay: Five-day zebrafish toxicity testing; assay type: in vivo; conditions: for Zebrafish LD50: embryos exposed continuously for five days from 24 hours of development; for Zebrafish specific toxicity observed: five-day exposure
Method: Fertilized zebrafish embryos were obtained by natural spawning in our aquaculture facility. To reduce variations between batches, randomized samples of embryos from 3 or 4 independent matings were used. The test medium was prepared by combining 5 g of Instant Ocean Salt with 3 g of CaSO4 in 25 liters of distilled water, according to Westerfield, supra. The embryos were maintained in the test medium throughout the experiments. Embryos at 24 hours of development (with chorion) were exposed continuously for five days to chemical compounds at different concentrations of the chemical compounds and controls. In general, the concentrations ranged from 100 nanomolar (nM) to 100 micromolar (μM). Tests were repeated four times for each series of dilutions, and a standard deviation was calculated for each treatment (see “Statistical Methods” section). Ten embryos per concentration were exposed in a total volume of 1 ml (constant ratio of 100 μl/embryo) using a 24 multi-well plate. (Other sizes of multi-well plates, such as 96-well plates can also be used to facilitate screening.) The compounds were renewed daily. In all cases, 0.1% of dimethyl sulfoxide (DMSO) was used as a carrier solvent during the treatment. Controls with and without 0.1% DMSO were performed in all experiments. This approach has long been used to introduce anesthetics and other chemicals into fish embryos (Westerfield, supra).
Experiments were carried out at a constant temperature (28–28.5° C.) in the dark to protect the compounds from decomposition due to light exposure. Dead embryos were removed daily, counted, and used to calculate the Median Lethal Concentration (LC50, see “Statistical Methods” section herein). Each day, surviving embryos were analyzed visually under a dissecting binocular microscope (Zeiss, amplification 30–50×). Macroscopic malformations (such as axial defects, embryolethality, growth inhibition, general malformations, including microcephaly, macrocephaly, tail truncation, tail malformation, loss of axial structures, such as somites, etc.) were observed, classified, and counted to assess whole animal toxicity. Compounds that were lethal or induced these or any noted malformations or disruptions during development (e.g., during the first 5 days of development) were further examined for toxic effects on organs. The embryonic developmental stage that is affected by the toxic compound can be determined. Organ toxicity can be assessed in surviving embryos using in situ hybridization, enzymatic assays, and immunochemistry procedures.
Toxic activity in the kidney (Pronephros) can be assessed visually by colorimetric staining of the kidney of the treated whole animal (e.g., zebrafish). Zebrafish pronephros express high levels of the enzyme alkaline phosphatase that can be easily assayed using a chromogenic dye. To stain kidneys in zebrafish embryos, embryos were fixed with 2% paraformaldehyde overnight at 4° C. and then treated with methanol 100% for 30 minutes at room temperature. […]
For the concentrations tested with aspirin and dexamethasone in these studies, there was no partial lethality and the geometric mean of the parameters “no mortality” (0%) and “mortality” (100%) of the effect concentration was taken as the LC50 and binomial confidence limits were calculated according to Stephan, “Methods for Calculating LD50” in Aquatic Toxicology and Hazard Evaluation (F. L. Mayce and J. L. Hamelink eds.) ASTM STP 634, pp. 65–84. […]

[3] = tested on: liver of zebrafish embryos; assay: Liver staining with streptavidin-peroxidase (DAB visual, ABTS colorimetric); assay type: in vivo
Description: Toxic activity in the liver of the treated whole animal can be assessed visually by using a rapid colorimetric staining procedure. This procedure is based on the use of a streptavidin (avidin) conjugated reporter enzyme, such as peroxidase, to detect naturally biotinylated carboxylase enzymes in the liver, gut, and digestive tube of whole animals, such as zebrafish embryos. These biotinyl-lysine containing enzymes, such as acetyl-CoA carboxylase and other carboxylases, are predominantly located in the liver and digestive tube. As a result, staining is organ specific (FIG. 11). Quantitative biotinylated assessment of the liver can be made. By visual detection of biotinylation, size and location of the liver can be determined.
Zebrafish embryos (4, 5 or 6 days old) were fixed with 4% paraformaldehyde for 1 hour at room temperature and treated with methanol 100% overnight at −20° C. The embryos were rehydrated and washed with PBST. […] The embryos were then washed twenty minutes three times with PBST and stained for peroxidase with two different dyes: Diaminobenzidine (DAB) (Pierce) (insoluble) to assess liver staining and 2,2′-Azino-bis(3-Ethylbenz-thiazoline-6-sulfonic acid)(ABTS)(Sigma)(soluble) to measure a quantitative visual signal using a colorimetric method. […] The ABTS signal was detected by measuring the absorbance of the solution at 405 nanometer […] using a spectrophotometer. […]

[4] = tested on: rats; conditions: i.p. (intraperitoneal); cited from earlier work
[5] = tested on: mice; conditions: i.p. (intraperitoneal); cited from earlier work

Structure (SMILES)	Mammalian models specific toxicity (from the literature) [1]	Zebrafish LD50 [2] [mg/L]	Zebrafish specific toxicity observed [2]	liver size compared with control embryos ([3]; 100 μM for five days, six day old embryo)	reduction of the colorimetric liver signal (ABTS, 405 nm) compared with untreated embryos ([3]; 100 μM, five days)	Mammalian models LD50 [4]	Mammalian models LD50 [5]	Zebrafish specific toxicity observed ([2]; listed as dexamethasone)
CC(=O)Oc1ccccc1C(=O)O [Aspirin]	kidney,; also recorded: ureter,; also recorded: cardio-; also recorded: cranio-; also recorded: musculo-	101	teratogen,; also recorded: kidney,; also recorded: muscle; also recorded: erratic	–	–	–	–	–
C[C@@H]1C[C@H]2[C@@H]3CCC4=CC(=O)C=C[C@]4(C)[C@@]3(F)[C@@H](O)C[C@]2(C)[C@@]1(O)C(=O)CO [Dexamethasone]	liver,; also recorded: gastro-	324	liver,; also recorded: gastro-	dramatic reduction in liver size	about 70%	54 (rats, i.p.) mg/kg	410 (mice, i.p.) mg/kg	Liver and gastrointestinal toxicity
